Data reported in PMC13198257, “An aerosolized dual-action autotaxin inhibitor-PPARγ agonist for the treatment of pulmonary fibrosis” (Cell Reports Medicine, 2026).

System: lung gene expression
Assay: RNA sequencing of lung tissue (BLM/EL244 vs BLM)
Type: in vivo, mouse
Description: RNA quality was assessed using an Agilent TapeStation 4150 with the High Sensitivity […] ScreenTape (Agilent), according to the manufacturer’s protocols. For library preparation, the QuantSeq 3’mRNA-Seq Library Prep Kit (Lexogen) was used according to manufacturer’s instructions. Briefly, 500 ng of RNA from each sample was used for first-strand synthesis, followed by RNA template removal, and second-strand synthesis initiated by random primers. In-line barcodes were introduced at this step, and this was followed by magnetic bead-based purification. The resulting libraries were amplified for 15 cycles and re-purified, with quantity and quality assessed on a Qubit 4 Fluorometer with the Invitrogen Qubit dsDNA HS Assay and an Agilent Tapestation 4150 with the High Sensitivity D1000 assay kit, respectively. The quantified libraries were pooled equimolarly; 50ng of total library mix was used for Adapter Conversion PCR Amplification using the Universal Library Conversion Kit (App-A), Version: V1.0 (MGI Tech Co., Ltd.), according to the manufacturer’s instructions.
The quantity and quality of the purified adapter conversion PCR (AC-PCR) product were evaluated on a Qubit 4 Fluorometer with the Invitrogen Qubit dsDNA HS Assay and on an Agilent Tapestation 4150 with the High Sensitivity D1000 assay kit, respectively. This was followed by DNA denaturation, Single-Strand Circularisation, Enzymatic Digestion, Enzymatic Digestion Product Cleanup and Quality Control steps on 1 pmol of AC-PCR product, according to the Universal Library Conversion Kit (App-A) User Manual (Version: A3).
Finally, 60 fmol of ssCirDNA were used for DNB preparation and sequencing on a DNBSEQ-G400 platform at the BSRC Alexander Fleming Genomics Facility, using a G400 App-A FCS SE100 High-throughput Sequencing Set (MGI Tech Co., Ltd.), according to the manufacturer’s instructions.
Alignment of the FASTQ files was performed against the mouse genome build mm10 using a custom Bash script.[143] Read counting on the 3′ UTRs and differential expression analysis were conducted using the metaseqR2 bioconductor package.[144] Genes corresponding to the following biotypes were excluded: polymorphic_pseudogene, processed_transcript, pseudogene, IG_V_pseudogene, misc_RNA, IG_C_gene, IG_J_gene, IG_D_gene, IG_LV_gene, TR_V_gene, TR_V_pseudogene, TEC, and processed_pseudogene. Gene counts were normalized with DESEQ[145] through metaseqR2. Genes with more than 10 counts in at least 50% of the samples were kept for further processing. For differential expression analysis, the PANDORA algorithm[146] was used to estimate a meta p-value integrating the results from the DESEQ, DESEQ2,[147] edgeR,[148] limma,[149] NBPSeq,[150] and NOISeq[151] algorithms. All additional parameters were set to default values.
Pathway enrichment analysis was performed for the Gene Ontology Biological process (BP) and Molecular Function (MF) terms through GeneCodis 4.[152] The volcano plots, scatterplots, Venn diagrams, and dot plots were generated using the ggplot2 Bioconductor package.

O=C1NC(=O)C(Cc2ccc(OCCC3CCN(C(=O)OCc4cc(Cl)cc(Cl)c4)CC3)cc2)S1 (stereo not drawn) [EL244, 3,5-dichlorobenzyl 4-(2-(4-((2,4-dioxothiazolidin-5-yl)methyl)phenoxy)ethyl)piperidine-1-carboxylate]
Myh6 log2 nFC BLM/EL244 vs BLM (DEG Myh6, nFC: normalised fold change): 2.62
Myh7 log2 nFC BLM/EL244 vs BLM (DEG Myh7, nFC: normalised fold change): 2.22
Myl4 log2 nFC BLM/EL244 vs BLM (DEG Myl4, nFC: normalised fold change): 1.94
Myl7 log2 nFC BLM/EL244 vs BLM (DEG Myl7, nFC: normalised fold change): 1.90
Mylk3 log2 nFC BLM/EL244 vs BLM (DEG Mylk3, nFC: normalised fold change): 2.03
Myom2 log2 nFC BLM/EL244 vs BLM (DEG Myom2, nFC: normalised fold change): 1.87
log2 nFC BLM/EL244 vs BLM (DEG Ncapd2): -1.29
Ndrg2 log2 nFC BLM/EL244 vs BLM (DEG Ndrg2, nFC: normalised fold change): 0.88
Nek5 log2 nFC BLM/EL244 vs BLM (DEG Nek5, nFC: normalised fold change): 0.81
Ngp log2 nFC BLM/EL244 vs BLM (DEG Ngp, nFC: normalised fold change): 2.72
Nhlrc1 log2 nFC BLM/EL244 vs BLM (DEG Nhlrc1, nFC: normalised fold change): 1.34
log2 nFC BLM/EL244 vs BLM (DEG Nnat): -1.34
Nova2 log2 nFC BLM/EL244 vs BLM (DEG Nova2, nFC: normalised fold change): 0.90
Npr3 log2 nFC BLM/EL244 vs BLM (DEG Npr3, nFC: normalised fold change): 1.53
Nr1d1 log2 nFC BLM/EL244 vs BLM (DEG Nr1d1, nFC: normalised fold change): 0.84
Nr4a3 log2 nFC BLM/EL244 vs BLM (DEG Nr4a3, nFC: normalised fold change): 1.63
log2 nFC BLM/EL244 vs BLM (DEG Nrcam): -1.26
log2 nFC BLM/EL244 vs BLM (DEG Nrep): -1.26
Nrgn log2 nFC BLM/EL244 vs BLM (DEG Nrgn, nFC: normalised fold change): 1.04
Nrn1 log2 nFC BLM/EL244 vs BLM (DEG Nrn1, nFC: normalised fold change): 1.84
Nrxn2 log2 nFC BLM/EL244 vs BLM (DEG Nrxn2, nFC: normalised fold change): 0.88
Ogn log2 nFC BLM/EL244 vs BLM (DEG Ogn, nFC: normalised fold change): 0.86
log2 nFC BLM/EL244 vs BLM (DEG Ooep): -1.51
Osgin1 log2 nFC BLM/EL244 vs BLM (DEG Osgin1, nFC: normalised fold change): 0.74
Pcolce2 log2 nFC BLM/EL244 vs BLM (DEG Pcolce2, nFC: normalised fold change): 0.98
Pcp4l1 log2 nFC BLM/EL244 vs BLM (DEG Pcp4l1, nFC: normalised fold change): 0.75
log2 nFC BLM/EL244 vs BLM (DEG Pdgfc): -1.47
log2 nFC BLM/EL244 vs BLM (DEG Pdlim4): -1.24
Phactr1 log2 nFC BLM/EL244 vs BLM (DEG Phactr1, nFC: normalised fold change): 0.74
Phf1 log2 nFC BLM/EL244 vs BLM (DEG Phf1, nFC: normalised fold change): 0.75
Phf24 log2 nFC BLM/EL244 vs BLM (DEG Phf24, nFC: normalised fold change): 1.57
log2 nFC BLM/EL244 vs BLM (DEG Pla1a): -1.42
Pla2g1b log2 nFC BLM/EL244 vs BLM (DEG Pla2g1b, nFC: normalised fold change): 0.79
log2 nFC BLM/EL244 vs BLM (DEG Plk4): -1.31
Pln log2 nFC BLM/EL244 vs BLM (DEG Pln, nFC: normalised fold change): 2.30
Pmvk log2 nFC BLM/EL244 vs BLM (DEG Pmvk, nFC: normalised fold change): 1.09
log2 nFC BLM/EL244 vs BLM (DEG Pole): -1.58
log2 nFC BLM/EL244 vs BLM (DEG Pole2): -1.50
Ppbp log2 nFC BLM/EL244 vs BLM (DEG Ppbp, nFC: normalised fold change): 1.09
Ppl log2 nFC BLM/EL244 vs BLM (DEG Ppl, nFC: normalised fold change): 0.87
Ppp4r4 log2 nFC BLM/EL244 vs BLM (DEG Ppp4r4, nFC: normalised fold change): 1.26
Pram1 log2 nFC BLM/EL244 vs BLM (DEG Pram1, nFC: normalised fold change): 1.64
Prf1 log2 nFC BLM/EL244 vs BLM (DEG Prf1, nFC: normalised fold change): 1.34
Prmt8 log2 nFC BLM/EL244 vs BLM (DEG Prmt8, nFC: normalised fold change): 1.27
Prob1 log2 nFC BLM/EL244 vs BLM (DEG Prob1, nFC: normalised fold change): 0.76
log2 nFC BLM/EL244 vs BLM (DEG Psrc1): -1.26
Ptgfr log2 nFC BLM/EL244 vs BLM (DEG Ptgfr, nFC: normalised fold change): 0.93
log2 nFC BLM/EL244 vs BLM (DEG Pth1r): -1.40
Pwwp3b log2 nFC BLM/EL244 vs BLM (DEG Pwwp3b, nFC: normalised fold change): 1.22
Rab44 log2 nFC BLM/EL244 vs BLM (DEG Rab44, nFC: normalised fold change): 1.61
Rapgef5 log2 nFC BLM/EL244 vs BLM (DEG Rapgef5, nFC: normalised fold change): 0.88
Rassf10 log2 nFC BLM/EL244 vs BLM (DEG Rassf10, nFC: normalised fold change): 1.19
Rbfox3 log2 nFC BLM/EL244 vs BLM (DEG Rbfox3, nFC: normalised fold change): 1.26
Rbm24 log2 nFC BLM/EL244 vs BLM (DEG Rbm24, nFC: normalised fold change): 1.20
Rdh12 log2 nFC BLM/EL244 vs BLM (DEG Rdh12, nFC: normalised fold change): 1.74
Retnlg log2 nFC BLM/EL244 vs BLM (DEG Retnlg, nFC: normalised fold change): 1.46
Rgs9 log2 nFC BLM/EL244 vs BLM (DEG Rgs9, nFC: normalised fold change): 1.01
